Source: publication PMC6199744, “Development of Chemical Proteomics for the Folateome and Analysis of the Kinetoplastid Folateome” (ACS Infectious Diseases, 2018)
Read-outs that look alike come from different tables or passages of the source.

Tests used:
Assay type in all cases: binding
[1] = target: T1, HeLa cell extract proteins (Homo sapiens, UniProt Q9Y6M0)
T1 construct: endogenous in cells; host or cells: HeLa cell extract

[2] = target: T2, HeLa cell extract proteins (Homo sapiens, UniProt Q15029)
T2 construct: endogenous in cells; host or cells: HeLa cell extract
T2 sequence (Q15029 1-972): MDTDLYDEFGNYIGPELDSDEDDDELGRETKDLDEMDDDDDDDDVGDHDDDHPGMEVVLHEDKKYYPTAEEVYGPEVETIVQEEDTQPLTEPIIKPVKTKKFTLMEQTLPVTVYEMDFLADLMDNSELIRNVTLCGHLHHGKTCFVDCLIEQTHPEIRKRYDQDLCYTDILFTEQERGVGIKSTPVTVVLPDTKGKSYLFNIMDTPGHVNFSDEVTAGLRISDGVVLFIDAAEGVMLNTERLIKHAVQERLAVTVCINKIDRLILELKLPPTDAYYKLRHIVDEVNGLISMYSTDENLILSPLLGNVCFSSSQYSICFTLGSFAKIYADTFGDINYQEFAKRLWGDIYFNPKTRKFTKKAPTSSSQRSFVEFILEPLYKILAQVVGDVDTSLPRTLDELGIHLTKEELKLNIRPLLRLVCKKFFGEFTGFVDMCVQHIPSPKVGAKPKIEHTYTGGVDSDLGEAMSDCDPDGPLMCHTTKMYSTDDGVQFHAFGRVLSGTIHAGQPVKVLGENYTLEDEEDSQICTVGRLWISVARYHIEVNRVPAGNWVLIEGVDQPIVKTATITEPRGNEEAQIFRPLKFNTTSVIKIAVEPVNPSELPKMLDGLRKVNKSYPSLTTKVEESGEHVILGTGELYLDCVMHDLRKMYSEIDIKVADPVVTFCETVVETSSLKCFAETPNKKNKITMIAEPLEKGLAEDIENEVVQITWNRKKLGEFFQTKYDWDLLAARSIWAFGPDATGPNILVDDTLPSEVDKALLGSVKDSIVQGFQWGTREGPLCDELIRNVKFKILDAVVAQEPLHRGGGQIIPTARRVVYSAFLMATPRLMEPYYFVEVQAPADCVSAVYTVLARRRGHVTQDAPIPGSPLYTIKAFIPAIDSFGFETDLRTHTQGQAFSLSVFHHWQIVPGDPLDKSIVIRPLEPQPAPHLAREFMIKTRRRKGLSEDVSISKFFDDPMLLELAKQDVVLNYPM

[3] = target: T3, HeLa cell extract proteins (Homo sapiens, UniProt Q96AG4)
T3 construct: endogenous in cells; host or cells: HeLa cell extract
T3 sequence (Q96AG4 1-307): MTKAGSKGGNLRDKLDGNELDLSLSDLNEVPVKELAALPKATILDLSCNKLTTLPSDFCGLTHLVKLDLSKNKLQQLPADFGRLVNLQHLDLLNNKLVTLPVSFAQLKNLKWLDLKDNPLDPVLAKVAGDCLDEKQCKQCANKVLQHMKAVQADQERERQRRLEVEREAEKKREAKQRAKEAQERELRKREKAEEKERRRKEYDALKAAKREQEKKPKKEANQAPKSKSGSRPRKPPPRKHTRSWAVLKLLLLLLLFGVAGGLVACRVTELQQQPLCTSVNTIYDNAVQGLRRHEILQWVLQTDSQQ

[4] = target: T4, HeLa cell extract proteins (Homo sapiens, UniProt Q14203)
T4 construct: endogenous in cells; host or cells: HeLa cell extract

[5] = target: T5, HeLa cell extract proteins (Homo sapiens, UniProt P22234)
T5 construct: endogenous in cells; host or cells: HeLa cell extract
T5 sequence (P22234 1-425): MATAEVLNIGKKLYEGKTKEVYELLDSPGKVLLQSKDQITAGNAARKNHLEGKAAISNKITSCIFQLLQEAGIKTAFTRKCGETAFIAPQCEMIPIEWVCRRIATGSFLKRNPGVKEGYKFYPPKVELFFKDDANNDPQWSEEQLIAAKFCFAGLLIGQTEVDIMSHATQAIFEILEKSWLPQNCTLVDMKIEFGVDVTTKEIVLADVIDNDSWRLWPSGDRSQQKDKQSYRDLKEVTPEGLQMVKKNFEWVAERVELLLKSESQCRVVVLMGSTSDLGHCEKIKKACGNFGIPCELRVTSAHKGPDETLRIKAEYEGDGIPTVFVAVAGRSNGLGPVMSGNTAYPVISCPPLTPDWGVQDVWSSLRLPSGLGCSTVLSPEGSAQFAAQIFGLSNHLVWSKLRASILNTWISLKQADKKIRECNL

[6] = target: T6, HeLa cell extract proteins (Homo sapiens, UniProt P48651)
T6 construct: endogenous in cells; host or cells: HeLa cell extract

[7] = target: T7, HeLa cell extract proteins (Homo sapiens, UniProt Q6P1J9)
T7 construct: endogenous in cells; host or cells: HeLa cell extract

[8] = target: T8, HeLa cell extract proteins (Homo sapiens, UniProt Q03393)
T8 construct: endogenous in cells; host or cells: HeLa cell extract
T8 sequence (Q03393 1-145): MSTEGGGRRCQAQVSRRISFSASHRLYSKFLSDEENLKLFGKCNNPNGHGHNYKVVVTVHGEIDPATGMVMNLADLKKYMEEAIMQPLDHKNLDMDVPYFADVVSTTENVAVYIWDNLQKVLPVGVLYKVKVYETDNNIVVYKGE

[9] = target: T9, HeLa cell extract proteins (Homo sapiens, UniProt O95714)
T9 construct: endogenous in cells; host or cells: HeLa cell extract

[10] = target: T10, HeLa cell extract proteins (Homo sapiens, UniProt Q9Y244)
T10 construct: endogenous in cells; host or cells: HeLa cell extract
T10 sequence (Q9Y244 1-141): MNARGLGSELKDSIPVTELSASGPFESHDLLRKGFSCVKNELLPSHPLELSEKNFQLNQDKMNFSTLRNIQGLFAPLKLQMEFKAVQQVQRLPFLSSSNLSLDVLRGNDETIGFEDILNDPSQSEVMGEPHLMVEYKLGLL

[11] = target: T11, HeLa cell extract proteins (Homo sapiens, UniProt P41091)
T11 construct: endogenous in cells; host or cells: HeLa cell extract

[12] = target: T12, HeLa cell extract proteins (Homo sapiens, UniProt P07355)
T12 construct: endogenous in cells; host or cells: HeLa cell extract
T12 sequence (P07355 whole entry): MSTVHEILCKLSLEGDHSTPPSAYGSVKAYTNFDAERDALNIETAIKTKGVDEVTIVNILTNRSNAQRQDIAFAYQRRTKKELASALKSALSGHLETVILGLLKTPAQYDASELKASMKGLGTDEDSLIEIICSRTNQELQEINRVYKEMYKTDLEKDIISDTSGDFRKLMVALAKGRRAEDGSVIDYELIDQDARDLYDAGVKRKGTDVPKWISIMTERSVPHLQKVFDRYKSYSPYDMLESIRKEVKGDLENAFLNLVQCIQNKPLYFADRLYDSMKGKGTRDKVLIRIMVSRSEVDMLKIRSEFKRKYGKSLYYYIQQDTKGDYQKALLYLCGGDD

T9 sequence (O95714 whole entry): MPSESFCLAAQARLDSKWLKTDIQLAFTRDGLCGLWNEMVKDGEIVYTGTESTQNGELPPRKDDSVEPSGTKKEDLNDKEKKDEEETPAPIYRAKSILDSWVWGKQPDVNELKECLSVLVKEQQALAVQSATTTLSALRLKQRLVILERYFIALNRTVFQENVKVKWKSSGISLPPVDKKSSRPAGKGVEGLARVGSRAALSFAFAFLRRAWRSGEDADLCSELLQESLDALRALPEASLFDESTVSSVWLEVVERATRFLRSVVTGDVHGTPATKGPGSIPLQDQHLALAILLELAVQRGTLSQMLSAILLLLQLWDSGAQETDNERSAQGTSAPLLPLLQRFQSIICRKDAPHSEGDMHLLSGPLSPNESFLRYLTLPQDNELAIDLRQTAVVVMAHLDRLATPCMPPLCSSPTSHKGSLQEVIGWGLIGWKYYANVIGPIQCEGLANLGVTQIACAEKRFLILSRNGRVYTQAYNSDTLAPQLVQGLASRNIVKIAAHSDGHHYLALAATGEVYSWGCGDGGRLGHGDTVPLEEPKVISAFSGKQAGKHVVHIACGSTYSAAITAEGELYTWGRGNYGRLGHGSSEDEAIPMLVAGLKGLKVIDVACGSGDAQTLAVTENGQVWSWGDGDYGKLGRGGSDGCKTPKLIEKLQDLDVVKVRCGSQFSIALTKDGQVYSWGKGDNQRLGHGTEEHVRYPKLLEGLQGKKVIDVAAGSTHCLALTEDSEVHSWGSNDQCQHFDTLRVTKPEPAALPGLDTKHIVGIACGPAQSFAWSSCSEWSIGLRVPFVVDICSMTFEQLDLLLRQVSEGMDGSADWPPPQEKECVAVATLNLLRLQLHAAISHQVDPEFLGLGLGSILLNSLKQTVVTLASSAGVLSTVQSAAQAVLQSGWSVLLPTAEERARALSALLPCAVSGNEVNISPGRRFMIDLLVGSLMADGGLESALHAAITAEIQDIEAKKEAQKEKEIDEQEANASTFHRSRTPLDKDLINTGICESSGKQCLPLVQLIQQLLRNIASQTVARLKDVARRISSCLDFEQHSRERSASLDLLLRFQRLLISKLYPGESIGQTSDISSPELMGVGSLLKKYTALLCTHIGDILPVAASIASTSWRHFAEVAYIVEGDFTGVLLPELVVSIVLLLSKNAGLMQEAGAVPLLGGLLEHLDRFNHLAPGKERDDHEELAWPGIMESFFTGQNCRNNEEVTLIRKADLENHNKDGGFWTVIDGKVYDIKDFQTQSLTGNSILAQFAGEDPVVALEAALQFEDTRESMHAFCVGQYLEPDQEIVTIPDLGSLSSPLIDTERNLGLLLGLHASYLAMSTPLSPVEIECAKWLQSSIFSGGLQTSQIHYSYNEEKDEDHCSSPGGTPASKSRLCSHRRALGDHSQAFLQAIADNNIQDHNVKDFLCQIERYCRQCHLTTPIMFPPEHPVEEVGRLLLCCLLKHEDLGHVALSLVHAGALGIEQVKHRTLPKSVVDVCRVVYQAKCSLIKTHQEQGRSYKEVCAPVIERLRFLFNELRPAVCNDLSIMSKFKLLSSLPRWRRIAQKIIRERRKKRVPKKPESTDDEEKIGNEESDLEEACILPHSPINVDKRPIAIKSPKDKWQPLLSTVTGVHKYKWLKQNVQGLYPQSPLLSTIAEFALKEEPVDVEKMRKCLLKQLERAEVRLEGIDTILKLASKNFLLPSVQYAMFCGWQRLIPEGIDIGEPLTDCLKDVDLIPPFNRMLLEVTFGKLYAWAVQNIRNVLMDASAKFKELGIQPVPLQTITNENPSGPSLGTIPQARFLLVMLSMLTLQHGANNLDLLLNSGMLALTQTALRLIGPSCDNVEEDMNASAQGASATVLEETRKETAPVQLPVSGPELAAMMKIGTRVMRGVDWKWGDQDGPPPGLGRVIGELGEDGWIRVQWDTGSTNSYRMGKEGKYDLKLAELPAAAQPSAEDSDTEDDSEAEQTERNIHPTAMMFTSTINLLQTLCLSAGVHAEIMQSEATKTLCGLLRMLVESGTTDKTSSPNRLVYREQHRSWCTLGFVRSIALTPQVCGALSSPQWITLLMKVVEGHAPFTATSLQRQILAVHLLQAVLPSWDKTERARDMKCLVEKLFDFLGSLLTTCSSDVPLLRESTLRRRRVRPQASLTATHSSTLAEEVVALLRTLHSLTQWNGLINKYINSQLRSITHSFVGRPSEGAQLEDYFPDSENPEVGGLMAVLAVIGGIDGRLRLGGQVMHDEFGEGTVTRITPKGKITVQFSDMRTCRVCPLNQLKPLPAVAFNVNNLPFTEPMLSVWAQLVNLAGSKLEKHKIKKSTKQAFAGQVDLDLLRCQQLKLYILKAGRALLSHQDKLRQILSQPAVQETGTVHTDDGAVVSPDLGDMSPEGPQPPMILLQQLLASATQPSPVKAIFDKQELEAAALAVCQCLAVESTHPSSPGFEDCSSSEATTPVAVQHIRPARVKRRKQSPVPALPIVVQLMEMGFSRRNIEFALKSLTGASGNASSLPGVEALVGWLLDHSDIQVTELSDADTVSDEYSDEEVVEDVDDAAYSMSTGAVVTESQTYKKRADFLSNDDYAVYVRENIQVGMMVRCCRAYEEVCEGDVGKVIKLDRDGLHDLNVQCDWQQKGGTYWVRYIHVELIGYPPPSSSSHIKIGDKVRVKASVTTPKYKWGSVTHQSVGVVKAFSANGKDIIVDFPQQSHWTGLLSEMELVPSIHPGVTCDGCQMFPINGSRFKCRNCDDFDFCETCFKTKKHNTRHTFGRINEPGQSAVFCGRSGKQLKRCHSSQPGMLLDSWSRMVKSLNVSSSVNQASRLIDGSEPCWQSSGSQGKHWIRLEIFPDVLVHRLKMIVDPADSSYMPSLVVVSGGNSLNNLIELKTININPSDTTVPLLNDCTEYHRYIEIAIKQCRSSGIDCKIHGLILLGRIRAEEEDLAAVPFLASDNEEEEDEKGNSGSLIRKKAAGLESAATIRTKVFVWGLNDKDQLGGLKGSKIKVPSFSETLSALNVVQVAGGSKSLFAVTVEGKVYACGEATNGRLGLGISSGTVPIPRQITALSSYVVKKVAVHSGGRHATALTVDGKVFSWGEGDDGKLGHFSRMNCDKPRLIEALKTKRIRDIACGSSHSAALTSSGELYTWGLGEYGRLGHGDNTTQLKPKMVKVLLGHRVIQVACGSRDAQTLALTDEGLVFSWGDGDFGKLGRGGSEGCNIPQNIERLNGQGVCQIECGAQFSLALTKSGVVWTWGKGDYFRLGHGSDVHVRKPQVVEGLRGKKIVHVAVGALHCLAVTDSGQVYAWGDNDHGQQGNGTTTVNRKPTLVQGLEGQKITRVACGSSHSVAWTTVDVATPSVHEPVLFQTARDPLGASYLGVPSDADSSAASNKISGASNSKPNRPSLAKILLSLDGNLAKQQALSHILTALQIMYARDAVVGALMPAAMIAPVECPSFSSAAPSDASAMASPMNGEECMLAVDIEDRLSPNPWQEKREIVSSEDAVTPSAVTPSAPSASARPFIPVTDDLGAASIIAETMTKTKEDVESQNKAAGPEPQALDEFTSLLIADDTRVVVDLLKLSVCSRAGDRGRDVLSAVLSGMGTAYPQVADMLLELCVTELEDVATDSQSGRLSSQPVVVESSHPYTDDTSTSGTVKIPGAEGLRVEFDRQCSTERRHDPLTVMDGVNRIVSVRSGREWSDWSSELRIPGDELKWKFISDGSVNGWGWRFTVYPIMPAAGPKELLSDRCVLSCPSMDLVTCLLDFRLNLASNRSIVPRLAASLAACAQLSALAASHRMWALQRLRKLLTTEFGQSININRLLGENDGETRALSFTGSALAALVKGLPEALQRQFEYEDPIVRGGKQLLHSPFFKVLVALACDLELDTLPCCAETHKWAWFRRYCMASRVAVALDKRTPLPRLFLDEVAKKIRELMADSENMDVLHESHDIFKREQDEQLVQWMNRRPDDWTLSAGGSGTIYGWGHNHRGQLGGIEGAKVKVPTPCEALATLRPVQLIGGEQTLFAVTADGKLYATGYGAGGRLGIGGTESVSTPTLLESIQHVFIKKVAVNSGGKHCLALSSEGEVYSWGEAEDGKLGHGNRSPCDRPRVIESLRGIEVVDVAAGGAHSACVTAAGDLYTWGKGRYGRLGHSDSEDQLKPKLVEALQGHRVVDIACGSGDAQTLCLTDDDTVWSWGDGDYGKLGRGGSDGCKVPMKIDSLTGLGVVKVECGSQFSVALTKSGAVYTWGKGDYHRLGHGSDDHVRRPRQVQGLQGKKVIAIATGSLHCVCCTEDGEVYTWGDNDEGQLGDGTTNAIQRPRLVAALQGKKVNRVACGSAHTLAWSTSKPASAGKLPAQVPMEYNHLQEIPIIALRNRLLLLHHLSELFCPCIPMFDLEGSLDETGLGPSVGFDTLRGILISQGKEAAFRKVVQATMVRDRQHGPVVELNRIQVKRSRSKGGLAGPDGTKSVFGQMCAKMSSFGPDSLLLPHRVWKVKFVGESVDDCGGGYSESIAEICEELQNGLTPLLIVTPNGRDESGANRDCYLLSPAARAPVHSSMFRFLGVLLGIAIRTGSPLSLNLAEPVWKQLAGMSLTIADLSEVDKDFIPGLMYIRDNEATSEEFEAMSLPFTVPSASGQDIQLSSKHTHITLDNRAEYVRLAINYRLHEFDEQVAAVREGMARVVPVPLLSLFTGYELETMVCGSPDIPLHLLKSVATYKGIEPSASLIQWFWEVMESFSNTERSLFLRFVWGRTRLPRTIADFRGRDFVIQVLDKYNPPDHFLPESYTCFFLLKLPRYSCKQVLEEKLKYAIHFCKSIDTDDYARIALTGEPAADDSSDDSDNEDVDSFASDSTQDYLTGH

Nc1nc2c(c(=O)[nH]1)N(C=O)C(CNc1ccc(C(=O)N[C@@H](CCC(=O)O)C(=O)O)cc1)CN2 (stereo partly drawn) [LEU, leucovorin]
fold changes relative to vehicle control ([1]; HeLa, protein PRSS21): 1 | fold changes relative to vehicle control ([2]; HeLa, protein EFTUD2): 0.97 | fold changes relative to vehicle control ([3]; HeLa, protein LRRC59): 0.83 | fold changes relative to vehicle control ([4]; protein DCTN1, HeLa): 1.14 | fold changes relative to vehicle control ([5]; HeLa, protein PAICS): 0.97 | fold changes relative to vehicle control ([6]; HeLa, protein PTDSS1): 0.84 | fold changes relative to vehicle control ([7]; protein CDC73, HeLa): 0.81 | fold changes relative to vehicle control ([8]; protein PTS, HeLa): 0.83 | fold changes relative to vehicle control ([9]; protein HERC2, HeLa): 1.09 | fold changes relative to vehicle control ([10]; protein POMP, HeLa): 0.72 | fold changes relative to vehicle control ([11]; protein EIF2S3, HeLa): 0.81 | fold changes relative to vehicle control ([12]; HeLa, protein ANXA2): 1

Nc1nc2[nH]cc(CCc3ccc(C(=O)N[C@@H](CCC(=O)O)C(=O)O)cc3)c2c(=O)[nH]1 [PTX, pemetrexed]
fold changes relative to vehicle control [1]: 0.89 | fold changes relative to vehicle control [2]: 0.9 | fold changes relative to vehicle control [3]: 0.83 | fold changes relative to vehicle control [4]: 1.17 | fold changes relative to vehicle control [5]: 0.86 | fold changes relative to vehicle control [6]: 0.8 | fold changes relative to vehicle control [7]: 0.76 | fold changes relative to vehicle control [8]: 0.23 | fold changes relative to vehicle control [9]: 1 | fold changes relative to vehicle control [10]: 0.83 | fold changes relative to vehicle control [11]: 0.87 | fold changes relative to vehicle control [12]: 1.1

CCCCCCOc1ccc(Cc2cnc(N)nc2N)cc1 [compound 1]
fold changes relative to vehicle control ([1]; HeLa, protein PRSS21): 1.11 | fold changes relative to vehicle control ([2]; protein EFTUD2, HeLa): 1.11 | fold changes relative to vehicle control ([3]; protein LRRC59, HeLa): 1.14 | fold changes relative to vehicle control ([4]; protein DCTN1, HeLa): 1.18 | fold changes relative to vehicle control ([5]; protein PAICS, HeLa): 1.07 | fold changes relative to vehicle control ([6]; captured protein PTDSS1, HeLa): 0.68 | fold changes relative to vehicle control ([7]; protein CDC73, HeLa): 1.18 | fold changes relative to vehicle control ([8]; captured protein PTS, HeLa): 0.72 | fold changes relative to vehicle control ([9]; protein HERC2, HeLa): 1 | fold changes relative to vehicle control ([10]; captured protein POMP, HeLa): 0.66 | fold changes relative to vehicle control ([11]; protein EIF2S3, HeLa): 1.07 | fold changes relative to vehicle control ([12]; protein ANXA2, HeLa): 1.18

CCCCCCOc1cccc(Cc2cnc(N)nc2N)c1 [compound 2]
fold changes relative to vehicle control ([1]; HeLa, protein PRSS21): 1.18 | fold changes relative to vehicle control ([2]; protein EFTUD2, HeLa): 1.4 | fold changes relative to vehicle control ([3]; protein LRRC59, HeLa): 1.54 | fold changes relative to vehicle control ([4]; protein DCTN1, HeLa): 1.27 | fold changes relative to vehicle control ([5]; protein PAICS, HeLa): 1.68 | fold changes relative to vehicle control ([6]; captured protein PTDSS1, HeLa): 1.03 | fold changes relative to vehicle control ([7]; protein CDC73, HeLa): 1.08 | fold changes relative to vehicle control ([8]; captured protein PTS, HeLa): 1.01 | fold changes relative to vehicle control ([9]; protein HERC2, HeLa): 0.83 | fold changes relative to vehicle control ([10]; captured protein POMP, HeLa): 0.89 | fold changes relative to vehicle control ([11]; protein EIF2S3, HeLa): 1.13 | fold changes relative to vehicle control ([12]; protein ANXA2, HeLa): 1.87

Nc1nc2cccc(-c3ccccc3)c2n1Cc1ccc(Cl)c(Cl)c1 [compound 3]
fold changes relative to vehicle control ([1]; HeLa, protein PRSS21): 1.04 | fold changes relative to vehicle control ([2]; protein EFTUD2, HeLa): 0.99 | fold changes relative to vehicle control ([3]; protein LRRC59, HeLa): 0.98 | fold changes relative to vehicle control ([4]; protein DCTN1, HeLa): 1.1 | fold changes relative to vehicle control ([5]; protein PAICS, HeLa): 0.94 | fold changes relative to vehicle control ([6]; captured protein PTDSS1, HeLa): 0.77 | fold changes relative to vehicle control ([7]; protein CDC73, HeLa): 0.88 | fold changes relative to vehicle control ([8]; captured protein PTS, HeLa): 1.1 | fold changes relative to vehicle control ([9]; protein HERC2, HeLa): 1.08 | fold changes relative to vehicle control ([10]; captured protein POMP, HeLa): 0.86 | fold changes relative to vehicle control ([11]; protein EIF2S3, HeLa): 1.06 | fold changes relative to vehicle control ([12]; protein ANXA2, HeLa): 0.9

NCCOCCOCC(=O)Nc1nc2ncc(CNc3ccc(C(=O)NC(CCC(=O)O)C(=O)O)cc3)nc2c(=O)[nH]1 (stereo not drawn) [compound 6]
fold changes relative to vehicle control ([1]; HeLa, protein PRSS21): 0.96 | fold changes relative to vehicle control ([2]; HeLa, protein EFTUD2): 1.04 | fold changes relative to vehicle control ([3]; HeLa, protein LRRC59): 1.13 | fold changes relative to vehicle control ([4]; protein DCTN1, HeLa): 1.32 | fold changes relative to vehicle control ([5]; HeLa, protein PAICS): 1.22 | fold changes relative to vehicle control ([6]; HeLa, protein PTDSS1): 0.89 | fold changes relative to vehicle control ([7]; protein CDC73, HeLa): 0.88 | fold changes relative to vehicle control ([8]; protein PTS, HeLa): 0.39 | fold changes relative to vehicle control ([9]; protein HERC2, HeLa): 1.07 | fold changes relative to vehicle control ([10]; protein POMP, HeLa): 0.86 | fold changes relative to vehicle control ([11]; protein EIF2S3, HeLa): 1.07 | fold changes relative to vehicle control ([12]; HeLa, protein ANXA2): 1.32

NCCCNc1ccc(C(=O)NC(CCC(=O)O)C(=O)O)cc1 (stereo not drawn) [compound 7]
fold changes relative to vehicle control ([1]; HeLa, protein PRSS21): 0.97 | fold changes relative to vehicle control ([2]; HeLa, protein EFTUD2): 0.91 | fold changes relative to vehicle control ([3]; HeLa, protein LRRC59): 0.87 | fold changes relative to vehicle control ([4]; protein DCTN1, HeLa): 1.03 | fold changes relative to vehicle control ([5]; HeLa, protein PAICS): 0.98 | fold changes relative to vehicle control ([6]; HeLa, protein PTDSS1): 0.96 | fold changes relative to vehicle control ([7]; protein CDC73, HeLa): 0.76 | fold changes relative to vehicle control ([8]; protein PTS, HeLa): 1.03 | fold changes relative to vehicle control ([9]; protein HERC2, HeLa): 1.09 | fold changes relative to vehicle control ([10]; protein POMP, HeLa): 0.85 | fold changes relative to vehicle control ([11]; protein EIF2S3, HeLa): 1 | fold changes relative to vehicle control ([12]; HeLa, protein ANXA2): 0.97
